We go through two substances from patent publication US12485080B2, “Cosmetic compositions” (Mary Kay Inc., priority 2011, dated 2025).

One experiment deals with collagen I. In words: Immunofluorescent staining of cultured human fibroblasts for dermal matrix proteins: collagen I. The conditions noted are these: immunofluorescent antibodies, compared to untreated controls. The class given is cell-based.
In a further experiment the test system is collagen III. In words: Immunofluorescent staining of cultured human fibroblasts for dermal matrix proteins: collagen III. The note with it: immunofluorescent antibodies, compared to untreated controls. The class given is cell-based.
In the next experiment the test system is elastin fibers. Put plainly: Immunofluorescence study of elastin fibers. The class given is cell-based, human. The conditions noted are these: immunofluorescence studies.
The next experiment concerns fibronectin. In words: Secretion of fibronectin. The class given is cell-based. The note with it: compared to untreated controls.
For another experiment, the system named is laminin. Put plainly: Secretion of laminin. The class given is cell-based. The note with it: compared to untreated controls.
The next experiment has as its system hyaluronic acid. In words: Hyaluronic acid production/secretion in cultured human dermal fibroblasts. The class given is cell-based. The note with it: compared to an untreated control. The procedure: In this study, tetradecyl aminobutyroylvalylamino butyric urea trifluoroacetate (SYN-HYCAN™ from Pentapharm/DSM) was replaced with Alpinia galanga leaf extract (HYALUFIX™ GL from BASF). Therefore, the combination of tripeptide-1 (KOLLAREN® from Unipex/Lucas Meyer), Centella asiatica stem cells (CENTELLA ASIATIC STEMS G™ from Ricerche Biotecnologiche), and Alpinia galanga leaf extract (HYALUFIX™ GL from BASF) was tested on skin at various levels in various dermatologically acceptable vehicles. The following includes data concerning these tests. Further, an in vitro assay was performed on Alpinia galanga leaf extract using cultured human dermal fibroblasts.

For the substance Tripeptide-1, the “increase in collagen I” value in the experiment with collagen I stood at 305%. Also, in the experiment on collagen III, the “increase in collagen III” value is 105%. Also, the “increase in elastin fibers” value with elastin fibers is 15%. The “increase in secretion of fibronectin” value with fibronectin came to 105%. For the same substance, the “increase in secretion of laminin” value in the experiment with laminin turned out to be 85%. Further, the “increase in production of hyaluronic acid secretion” value in the experiment on hyaluronic acid was 118%.

Regarding “Tetradecyl aminobutyroylvalylamino butyric urea trifluoroacetate”, in the experiment with hyaluronic acid, the “increase in production of hyaluronic acid secretion” value is recorded as 64.2%.
